Source: paper PMC5418711, “Safety and efficacy of the choline analogue SAR97276 for malaria treatment: results of two phase 2, open-label, multicenter trials in African patients” (Malaria Journal, 2017)

Key:
P. falciparum = assay: Study 1: phase 2 trial, efficacy of SAR97276A in uncomplicated falciparum malaria patients; assay type: in vivo, Plasmodium falciparum; conditions: for Median time to 50% parasite reduction (95% CI) / Median time to 90% parasite reduction (95% CI): Kaplan–Meier; for Recurrences up to day 28: patients judged successfully treated after 72 h
Method: The study was designed to enroll up to 210 malaria patients in sequential cohorts. A staggered trial design was planned to assess a single, IM dose of SAR97276A (0.18 mg/kg, or 12.5 mg fixed dose) first in adults and then progressively in children (age 7–17 years) and young children (age 0.5–7 years). Age de-escalation of the study was only allowed if threshold response rate in the respective study cohort was met (26 patients out of 30 patients need to have met the 4 criteria of the primary endpoint at 72 h plus adequate safety results). If efficacy criteria were not met but safety was acceptable, SAR97276A would be tested as a 3-day IM regimen (3 injections, 24 h apart) in an additionally recruited 30 patients of the respective cohort. Subsequently, in case of acceptable safety and efficacy, all following cohorts were treated with the 3-day IM regimen. In parallel, SAR97276A was planned to be tested as a single, IV dose (0.14 mg/kg or 10 mg fixed dose) first in adults and then in young children with severe malaria, if threshold response rate was met. An overview of this adaptive study design can be seen in Fig. 1 and Table 1.
The following age cohorts were planned to be enrolled: (i) Adults aged 18–65 years, body weight ≥50 kg, and uncomplicated malaria with P. falciparum ≥100 parasites/µL; (ii) children aged 7–17 years, and uncomplicated malaria with P. falciparum ≥1000 parasites/µL, and (iii) young children aged of 0.5–7 years with uncomplicated malaria (P. falciparum count ≥1000 parasites/µL) and as an additional group with symptoms or signs of severe malaria according to WHO [9]. Adults received SAR97276A either by IM (study group 1A and 1B) or by IV route (study group 1C). Children received SAR97276A only by IM injection (study group 1D). Young children (0.5–7 years) both with uncomplicated and with severe malaria were not included as Study 1 was stopped before reaching these cohorts due to lack of efficacy.
Study duration and follow-up In both studies, study duration was 28 days for each patient including a screening period of up to 12 h before inclusion into the study. Participants were hospitalized for at least 3 days (72 h) after the start of treatment. Follow-up visits were done on day 6, 8, 14 ± 2, 21 ± 2, 28 ± 2 (Study 1); and day 7, 14 ± 2, 21 ± 2, 28 ± 2 (Study 2). Patient examination Fever measurements and thick blood smears were done every 6 h until 72 h and at each follow-up visit. Parasitemia was determined microscopically by Giemsa stained thick blood smear by two trained microscopists blinded to each other. Safety assessment Safety analysis was based on AEs including vision assessment recorded from baseline until day 28 (in binocular conditions, for near and distant visual acuity, using standard optotypes appropriate for patient’s age and reading ability. Tests with standard corrective glasses (+3 and −3 diopters) were performed in case of visual adverse events, to assess whether vision improved or worsened with corrective glasses). Laboratory tests including hematology, biochemistry and urine analysis were done at baseline, day 2, 4, 28 (Study 1), or baseline, day 2, 4, 14, 28 (Study 2); vital signs were recorded at baseline, every 6 h until 72 h and on each follow up visit. An electrocardiogram (ECG) was done at baseline, day 4, 28 (Study 1), or baseline, 48 h, 72 h, day 28 (Study 2). For Study 2 respiratory parameters (respiratory rate, peak flow, efficiency of cough) were also checked at baseline and 30 min after first dose on day 1, 2 and 3.
Definition of fever clearance Fever was defined as temperature ≥38 °C.
Definition of general condition improvement The symptoms were scored at baseline and every 6 h up to day 4 (72 h), including headache, fatigue, nausea-vomiting and abdominal pain. The symptoms were scored according to the following scale: absent -0-, mild -1-, moderate -2- and severe -3-. The total clinical score ranged between 0 and 12. […]

[1] = tested on: P. falciparum laboratory and clinical isolates; set-up: method as in PMID 11847346, PMID 15492221; conditions: cited from earlier work
[2] = Group 1A: 1 day IM 0.18 mg/kg, adults, N=34
[3] = Group 1A: 1 day IM 0.18 mg/kg, adults, PCR data available 12/14
[4] = Group 1B: 3 days IM 0.18 mg/kg, adults, N=30
[5] = Group 1B: 3 days IM 0.18 mg/kg, adults, PCR data available 11/13
[6] = Group 1C: 1 day IV 0.14 mg/kg, adults, N=30
[7] = Group 1C: 1 day IV 0.14 mg/kg, adults, PCR data available 10/15
[8] = Group 1D: 3 days IM 0.18 mg/kg, children
[9] = Group 1D: 3 days IM 0.18 mg/kg, children, N=19
[10] = Group 1D: 3 days IM 0.18 mg/kg, children, PCR data available 8/8

Cc1c(CCO)sc[n+]1CCCCCCCCCCCC[n+]1csc(CCO)c1C [SAR97276A]
General condition improvement at 48 h: Failure (P. falciparum; [2]): 2 (6%)
General condition improvement at 48 h: Success (P. falciparum; [2]): 32 (94%)
Parasite reduction (at least 90% at 72 h): Failure (P. falciparum; [2]): 11 (32%)
Parasite reduction (at least 90% at 72 h): Success (P. falciparum; [2]): 23 (68%)
Rescue therapy criterion (no need for rescue therapy): Failure (P. falciparum; [2]): 5 (15%)
Rescue therapy criterion (no need for rescue therapy): Success (P. falciparum; [2]): 29 (85%)
Median time to 50% parasite reduction (95% CI) (P. falciparum; [2]): 18.0 (12.0–24.0) h
Median time to 90% parasite reduction (95% CI) (P. falciparum; [2]): 30.0 (18.0–30.0) h
New infection (PCR genotyped recurrences up to day 28) (P. falciparum; [3]): 9 (75%)
Recrudescences (PCR genotyped recurrences up to day 28) (P. falciparum; [3]): 3 (25%)
Recurrences up to day 28 (P. falciparum; Group 1A: 1 day IM 0.18 mg/kg, adults): 14
General condition improvement at 48 h: Failure (P. falciparum; [4]): 2 (7%)
General condition improvement at 48 h: Success (P. falciparum; [4]): 28 (93%)
Parasite reduction (at least 90% at 72 h): Failure (P. falciparum; [4]): 2 (7%)
Parasite reduction (at least 90% at 72 h): Success (P. falciparum; [4]): 28 (93%)
Rescue therapy criterion (no need for rescue therapy): Failure (P. falciparum; [4]): 1 (3%)
Rescue therapy criterion (no need for rescue therapy): Success (P. falciparum; [4]): 29 (97%)
Median time to 50% parasite reduction (95% CI) (P. falciparum; [4]): 18.0 (6.0–24.0) h
Median time to 90% parasite reduction (95% CI) (P. falciparum; [4]): 24.0 (12.0–36.0) h
New infection (PCR genotyped recurrences up to day 28) (P. falciparum; [5]): 6 (54.5%)
Recrudescences (PCR genotyped recurrences up to day 28) (P. falciparum; [5]): 5 (45.5%)
Recurrences up to day 28 (P. falciparum; Group 1B: 3 days IM 0.18 mg/kg, adults): 13
General condition improvement at 48 h: Failure (P. falciparum; [6]): 1 (3%)
General condition improvement at 48 h: Success (P. falciparum; [6]): 29 (97%)
Parasite reduction (at least 90% at 72 h): Failure (P. falciparum; [6]): 7 (23%)
Parasite reduction (at least 90% at 72 h): Success (P. falciparum; [6]): 23 (77%)
Rescue therapy criterion (no need for rescue therapy): Failure (P. falciparum; [6]): 1 (3%)
Rescue therapy criterion (no need for rescue therapy): Success (P. falciparum; [6]): 29 (97%)
Median time to 50% parasite reduction (95% CI) (P. falciparum; [6]): 9.0 (6.0–18.0) h
Median time to 90% parasite reduction (95% CI) (P. falciparum; [6]): 30.0 (18.0–30.0) h
New infection (PCR genotyped recurrences up to day 28) (P. falciparum; [7]): 6 (60%)
Recrudescences (PCR genotyped recurrences up to day 28) (P. falciparum; [7]): 4 (40%)
Recurrences up to day 28 (P. falciparum; Group 1C: 1 day IV 0.14 mg/kg, adults): 15
Recrudescence of the same parasite until day 14 in successfully cured children (assessed after 72 h) (P. falciparum; [8]): 3/13
Enrolled patients failed to meet the predetermined efficacy response criteria (P. falciparum; Group 1D: 3 days IM 0.18 mg/kg, children's cohort): 5/19
General condition improvement at 48 h: Failure (P. falciparum; [9]): 1 (5%)
General condition improvement at 48 h: Not evaluable (P. falciparum; [9]): 1 (5%)
General condition improvement at 48 h: Success (P. falciparum; [9]): 17 (90%)
Parasite reduction (at least 90% at 72 h): Failure (P. falciparum; [9]): 5 (26%)
Parasite reduction (at least 90% at 72 h): Not evaluable (P. falciparum; [9]): 0
Parasite reduction (at least 90% at 72 h): Success (P. falciparum; [9]): 14 (74%)
Rescue therapy criterion (no need for rescue therapy): Failure (P. falciparum; [9]): 4 (21%)
Rescue therapy criterion (no need for rescue therapy): Not evaluable (P. falciparum; [9]): 0
Rescue therapy criterion (no need for rescue therapy): Success (P. falciparum; [9]): 15 (79%)
Median time to 50% parasite reduction (95% CI) (P. falciparum; [9]): 24.0 (12.0–24.0) h
Median time to 90% parasite reduction (95% CI) (P. falciparum; [9]): 24.0 (24.0–30.0) h
New infection (PCR genotyped recurrences up to day 28) (P. falciparum; [10]): 0
Recrudescences (PCR genotyped recurrences up to day 28) (P. falciparum; [10]): 8 (100%)
Recurrences up to day 28 (P. falciparum; [8]): 8
Recurrences in the successfully treated patients until day 28, total (P. falciparum; Study 1, all groups): 50
New infections among genotyped recurrences, total (P. falciparum; Study 1, all groups, 41 recurrences genotyped by PCR): 21
In vitro-activity against P. falciparum laboratory and clinical isolates [1]: powerful in vitro-activity
